According to ChEMBL document CHEMBL5058641, “Data for DCP probe TP-050” (2022):

Legend:
[1] = target: Muscarinic acetylcholine receptor M2 (Homo sapiens) (UniProt P08172); details: Compound concentration 10.0 uM
Rattus norvegicus = species on record: Rattus norvegicus; details: Compound concentration 10.0 uM

Muscarinic acetylcholine receptor M2 (Homo sapiens), sequence (P08172 whole entry): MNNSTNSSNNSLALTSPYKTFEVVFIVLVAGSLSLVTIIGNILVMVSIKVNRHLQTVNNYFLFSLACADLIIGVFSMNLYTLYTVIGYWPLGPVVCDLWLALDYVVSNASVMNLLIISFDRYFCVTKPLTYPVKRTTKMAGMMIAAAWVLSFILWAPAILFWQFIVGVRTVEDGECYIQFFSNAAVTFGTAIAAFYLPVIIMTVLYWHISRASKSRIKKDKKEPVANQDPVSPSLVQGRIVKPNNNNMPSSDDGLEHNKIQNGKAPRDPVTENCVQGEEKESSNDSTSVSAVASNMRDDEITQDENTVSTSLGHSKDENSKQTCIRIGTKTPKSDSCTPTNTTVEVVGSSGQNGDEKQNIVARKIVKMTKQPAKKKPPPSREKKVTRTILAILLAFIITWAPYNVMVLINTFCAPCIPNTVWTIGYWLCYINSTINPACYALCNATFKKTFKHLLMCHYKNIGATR

Cc1cn([C@H](C)CC#N)c(=O)c2cc(Cn3nc(C(F)F)cc3Cl)nn12
inhibition [1]: 4.32%
inhibition (Rattus norvegicus): 83.2%
